Results as given in PMC10378394 (Current Issues in Molecular Biology, 2023).

Experiments:
p70S6K(h) = p70S6K(h) (Homo sapiens, UniProt P23443); assay: Eurofins kinase assay
PKCα(h) = PKCα(h) (Homo sapiens, UniProt P17252); assay: Eurofins kinase assay
SGK(h) = SGK(h) (Homo sapiens, UniProt O00141); assay: Eurofins kinase assay
PKCβII(h) = PKCβII(h) (Homo sapiens, UniProt P05771); assay: Eurofins kinase assay
PKCη(h) = PKCη(h) (Homo sapiens, UniProt P24723); assay: Eurofins kinase assay
Fyn(h) = Fyn(h) (Homo sapiens, UniProt P06241); assay: Eurofins kinase assay
CDK2/cyclinE(h) = CDK2/cyclinE(h) (Homo sapiens, UniProt P24941); assay: Eurofins kinase assay
CRAF = CRAF (Homo sapiens, UniProt P04049); assay: KiNativ cell-based kinase assay in HCT116; parameters: purchased Eurofins (Poitiers, France)
Protocol: (§1) Kinase selectivity profiling in cells was carried out using the KiNativ assay developed by ActivX Biosciences (La Jolla, CA, USA). HCT 116 cells were utilized for the experiment. […] Following the treatment, the cells were lysed, and the lysates were processed for further analysis. Probe labeling was performed using the lysates, and the labeled samples were subjected to LC/MS-MS (Liquid Chromatography/Mass Spectrometry) analysis.

ARAF = molecular target: T1, ARAF (Homo sapiens, UniProt P10398); assay: KiNativ cell-based kinase assay in HCT116; parameters: purchased Eurofins (Poitiers, France); conditions: HCT116, full-length protein; read-out: Binding Affinities in HCT116 (EC50)
T1 sequence (P10398 1-606): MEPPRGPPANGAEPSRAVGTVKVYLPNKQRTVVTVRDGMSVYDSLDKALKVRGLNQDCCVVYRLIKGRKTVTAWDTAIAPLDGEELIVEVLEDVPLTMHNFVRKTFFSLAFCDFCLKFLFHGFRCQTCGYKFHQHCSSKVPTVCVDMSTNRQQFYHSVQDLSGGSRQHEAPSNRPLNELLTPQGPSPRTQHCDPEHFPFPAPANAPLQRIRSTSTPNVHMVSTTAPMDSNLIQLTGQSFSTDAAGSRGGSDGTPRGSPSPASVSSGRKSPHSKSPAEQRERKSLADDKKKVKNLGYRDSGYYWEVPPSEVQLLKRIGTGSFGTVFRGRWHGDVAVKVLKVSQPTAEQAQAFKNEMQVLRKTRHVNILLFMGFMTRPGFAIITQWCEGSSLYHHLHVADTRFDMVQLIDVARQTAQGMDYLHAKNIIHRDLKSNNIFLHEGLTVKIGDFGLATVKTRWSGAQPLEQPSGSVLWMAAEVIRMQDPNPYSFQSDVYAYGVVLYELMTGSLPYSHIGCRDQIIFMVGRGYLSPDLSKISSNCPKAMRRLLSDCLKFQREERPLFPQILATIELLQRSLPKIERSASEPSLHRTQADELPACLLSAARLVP
Protocol: as §1

BRAF = BRAF (Homo sapiens, UniProt P15056); assay: KiNativ cell-based kinase assay in HCT116; parameters: purchased Eurofins (Poitiers, France)
Protocol: as §1

HUVECs = assay: Tube formation assay; type: cell-based, human
Protocol: Cell culture plates were coated with Matrigel at a concentration of 7 mg/mL and incubated at 37 °C for 45 min to allow gel formation. Human umbilical vein endothelial cells (HUVECs) were harvested using trypsin and resuspended in endothelial cell growth medium. Following a 5 h incubation period, the formation of endothelial cell tubes was assessed using an inverted photomicroscope (Nikon, Tokyo, Japan). Microphotographs were taken, and the quantification of tube formation, specifically tube length, was performed. To quantify tube formation, measurements were obtained using ImageJ. The long axis of each tube or single cell, as well as groups of adjacent cells, was measured.

PRK2(h) = PRK2(h) (Homo sapiens, UniProt Q16513); assay: Eurofins kinase assay
EGFR(h) = EGFR(h) (Homo sapiens, UniProt P00533); assay: Eurofins kinase assay
PDGFRα(h) = PDGFRα(h) (Homo sapiens, UniProt P16234); assay: Eurofins kinase assay
Yes(h) = Yes(h) (Homo sapiens, UniProt P07947); assay: Eurofins kinase assay
CaMKIV(h) = CaMKIV(h) (Homo sapiens, UniProt Q16566); assay: Eurofins kinase assay
[1] = HCT116, full-length protein, read-out: Binding Affinities in HCT116 (EC50)
[2] = HCT 116 cells, 2 h, 10 µM, read-out: inhibition of probe binding

Sequence of CRAF (P04049 whole entry): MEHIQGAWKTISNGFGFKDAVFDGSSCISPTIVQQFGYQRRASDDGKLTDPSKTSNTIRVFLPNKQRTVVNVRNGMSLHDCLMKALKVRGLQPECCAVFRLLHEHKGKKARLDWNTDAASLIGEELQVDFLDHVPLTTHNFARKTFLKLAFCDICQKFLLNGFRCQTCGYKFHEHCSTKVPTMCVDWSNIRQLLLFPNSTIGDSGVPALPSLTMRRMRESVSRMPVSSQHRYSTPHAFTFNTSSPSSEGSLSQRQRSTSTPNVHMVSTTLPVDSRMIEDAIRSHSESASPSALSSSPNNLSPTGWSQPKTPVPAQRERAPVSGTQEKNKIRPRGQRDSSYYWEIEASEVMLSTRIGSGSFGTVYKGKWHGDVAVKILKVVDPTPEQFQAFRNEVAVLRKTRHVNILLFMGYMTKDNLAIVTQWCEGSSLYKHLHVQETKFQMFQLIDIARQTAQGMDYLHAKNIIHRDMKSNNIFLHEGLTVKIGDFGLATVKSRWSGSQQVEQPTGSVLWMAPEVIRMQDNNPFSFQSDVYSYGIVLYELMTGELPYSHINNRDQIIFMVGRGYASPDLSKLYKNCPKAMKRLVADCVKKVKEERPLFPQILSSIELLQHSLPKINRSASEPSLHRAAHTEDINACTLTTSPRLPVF
Sequence of BRAF (P15056 whole entry): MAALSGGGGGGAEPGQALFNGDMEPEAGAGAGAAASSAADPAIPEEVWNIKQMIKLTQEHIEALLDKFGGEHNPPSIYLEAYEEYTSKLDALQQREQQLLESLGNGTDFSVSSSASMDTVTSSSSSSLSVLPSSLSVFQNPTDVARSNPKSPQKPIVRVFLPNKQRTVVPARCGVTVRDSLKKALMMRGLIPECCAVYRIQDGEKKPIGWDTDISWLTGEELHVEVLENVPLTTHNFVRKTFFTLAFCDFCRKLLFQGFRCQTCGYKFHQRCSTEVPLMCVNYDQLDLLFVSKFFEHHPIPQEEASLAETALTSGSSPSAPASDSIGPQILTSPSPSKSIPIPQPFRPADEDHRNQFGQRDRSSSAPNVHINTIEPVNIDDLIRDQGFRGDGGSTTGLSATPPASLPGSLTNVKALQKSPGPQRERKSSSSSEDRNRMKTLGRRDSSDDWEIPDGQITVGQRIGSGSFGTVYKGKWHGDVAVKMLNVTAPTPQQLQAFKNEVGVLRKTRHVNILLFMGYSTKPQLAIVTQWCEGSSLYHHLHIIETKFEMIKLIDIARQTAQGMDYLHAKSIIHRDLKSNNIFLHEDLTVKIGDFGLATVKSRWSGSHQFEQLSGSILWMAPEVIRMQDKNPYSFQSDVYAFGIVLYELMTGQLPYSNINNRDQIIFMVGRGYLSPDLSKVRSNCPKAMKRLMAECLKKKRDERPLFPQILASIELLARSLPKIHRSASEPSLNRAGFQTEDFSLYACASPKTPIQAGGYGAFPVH
Sequence of p70S6K(h) (P23443 whole entry): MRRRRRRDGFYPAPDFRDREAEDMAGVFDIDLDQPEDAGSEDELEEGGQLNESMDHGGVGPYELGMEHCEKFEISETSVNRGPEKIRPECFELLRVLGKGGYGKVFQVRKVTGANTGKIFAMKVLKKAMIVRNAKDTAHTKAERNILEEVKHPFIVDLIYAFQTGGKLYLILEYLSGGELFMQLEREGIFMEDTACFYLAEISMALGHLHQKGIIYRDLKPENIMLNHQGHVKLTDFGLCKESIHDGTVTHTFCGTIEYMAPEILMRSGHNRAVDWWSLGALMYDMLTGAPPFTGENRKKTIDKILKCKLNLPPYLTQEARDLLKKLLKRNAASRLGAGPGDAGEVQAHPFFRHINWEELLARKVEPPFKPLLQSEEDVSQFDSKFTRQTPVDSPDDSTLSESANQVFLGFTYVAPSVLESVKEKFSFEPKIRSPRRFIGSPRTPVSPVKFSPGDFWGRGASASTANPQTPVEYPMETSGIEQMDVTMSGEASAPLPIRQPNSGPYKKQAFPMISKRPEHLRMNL
Sequence of CaMKIV(h) (Q16566 whole entry): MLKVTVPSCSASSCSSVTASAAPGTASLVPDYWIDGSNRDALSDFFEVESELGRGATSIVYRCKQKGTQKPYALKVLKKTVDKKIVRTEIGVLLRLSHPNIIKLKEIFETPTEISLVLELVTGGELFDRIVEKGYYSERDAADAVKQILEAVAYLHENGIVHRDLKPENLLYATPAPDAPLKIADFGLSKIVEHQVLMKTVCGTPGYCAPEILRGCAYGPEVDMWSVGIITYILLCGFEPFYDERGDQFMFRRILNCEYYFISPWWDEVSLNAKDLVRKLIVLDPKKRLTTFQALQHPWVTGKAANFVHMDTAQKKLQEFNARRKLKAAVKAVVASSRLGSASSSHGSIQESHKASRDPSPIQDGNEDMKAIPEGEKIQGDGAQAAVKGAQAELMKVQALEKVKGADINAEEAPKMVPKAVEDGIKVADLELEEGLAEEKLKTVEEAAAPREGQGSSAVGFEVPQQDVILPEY
Sequence of PKCβII(h) (P05771 1-673 isoform P05771-2): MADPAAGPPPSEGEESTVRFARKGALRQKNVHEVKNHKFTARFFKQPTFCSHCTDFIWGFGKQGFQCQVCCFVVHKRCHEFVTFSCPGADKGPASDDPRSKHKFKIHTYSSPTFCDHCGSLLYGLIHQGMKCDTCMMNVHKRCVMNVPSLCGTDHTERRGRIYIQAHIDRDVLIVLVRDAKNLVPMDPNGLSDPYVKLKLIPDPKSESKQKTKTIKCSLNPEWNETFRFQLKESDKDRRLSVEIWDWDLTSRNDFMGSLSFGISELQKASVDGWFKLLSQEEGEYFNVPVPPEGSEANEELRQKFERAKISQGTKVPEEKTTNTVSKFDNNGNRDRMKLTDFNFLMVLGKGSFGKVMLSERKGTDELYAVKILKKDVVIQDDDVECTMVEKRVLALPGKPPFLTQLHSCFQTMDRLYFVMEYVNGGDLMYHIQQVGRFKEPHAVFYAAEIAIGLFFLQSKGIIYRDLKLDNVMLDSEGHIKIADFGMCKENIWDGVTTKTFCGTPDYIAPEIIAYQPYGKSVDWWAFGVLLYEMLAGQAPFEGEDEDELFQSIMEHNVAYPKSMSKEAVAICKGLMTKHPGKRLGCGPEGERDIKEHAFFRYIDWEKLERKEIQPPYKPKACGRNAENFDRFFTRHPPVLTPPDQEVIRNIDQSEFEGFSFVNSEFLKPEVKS
Sequence of EGFR(h) (P00533 25-1210): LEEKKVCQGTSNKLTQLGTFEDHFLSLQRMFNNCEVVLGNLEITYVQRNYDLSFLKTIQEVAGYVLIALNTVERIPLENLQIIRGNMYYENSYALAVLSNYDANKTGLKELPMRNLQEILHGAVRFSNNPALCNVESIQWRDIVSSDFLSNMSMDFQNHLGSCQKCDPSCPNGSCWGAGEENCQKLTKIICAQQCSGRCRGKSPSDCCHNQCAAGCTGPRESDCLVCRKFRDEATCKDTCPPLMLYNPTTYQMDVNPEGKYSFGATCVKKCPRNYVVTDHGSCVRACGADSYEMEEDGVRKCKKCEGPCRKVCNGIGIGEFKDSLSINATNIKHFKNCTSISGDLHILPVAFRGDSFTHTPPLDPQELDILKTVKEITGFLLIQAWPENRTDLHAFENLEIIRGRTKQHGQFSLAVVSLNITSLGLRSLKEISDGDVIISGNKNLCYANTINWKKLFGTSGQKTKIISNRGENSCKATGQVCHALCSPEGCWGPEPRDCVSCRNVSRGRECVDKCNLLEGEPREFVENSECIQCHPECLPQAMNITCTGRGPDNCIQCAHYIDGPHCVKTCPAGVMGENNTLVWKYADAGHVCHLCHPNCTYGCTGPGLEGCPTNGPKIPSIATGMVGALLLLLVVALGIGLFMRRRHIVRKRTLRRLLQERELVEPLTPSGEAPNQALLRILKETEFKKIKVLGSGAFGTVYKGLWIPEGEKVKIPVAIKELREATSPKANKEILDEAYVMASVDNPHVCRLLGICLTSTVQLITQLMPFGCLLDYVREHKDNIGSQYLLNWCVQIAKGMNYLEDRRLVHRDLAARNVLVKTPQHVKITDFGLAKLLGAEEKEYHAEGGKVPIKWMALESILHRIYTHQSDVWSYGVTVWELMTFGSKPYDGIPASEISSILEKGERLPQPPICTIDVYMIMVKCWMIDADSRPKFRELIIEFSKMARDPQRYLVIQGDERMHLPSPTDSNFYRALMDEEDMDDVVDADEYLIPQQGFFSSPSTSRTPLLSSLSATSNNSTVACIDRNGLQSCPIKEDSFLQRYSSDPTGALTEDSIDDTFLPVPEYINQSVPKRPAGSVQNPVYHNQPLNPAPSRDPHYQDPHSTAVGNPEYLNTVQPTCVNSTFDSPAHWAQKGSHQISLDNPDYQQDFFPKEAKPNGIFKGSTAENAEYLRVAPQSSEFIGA
Sequence of Fyn(h) (P06241 whole entry): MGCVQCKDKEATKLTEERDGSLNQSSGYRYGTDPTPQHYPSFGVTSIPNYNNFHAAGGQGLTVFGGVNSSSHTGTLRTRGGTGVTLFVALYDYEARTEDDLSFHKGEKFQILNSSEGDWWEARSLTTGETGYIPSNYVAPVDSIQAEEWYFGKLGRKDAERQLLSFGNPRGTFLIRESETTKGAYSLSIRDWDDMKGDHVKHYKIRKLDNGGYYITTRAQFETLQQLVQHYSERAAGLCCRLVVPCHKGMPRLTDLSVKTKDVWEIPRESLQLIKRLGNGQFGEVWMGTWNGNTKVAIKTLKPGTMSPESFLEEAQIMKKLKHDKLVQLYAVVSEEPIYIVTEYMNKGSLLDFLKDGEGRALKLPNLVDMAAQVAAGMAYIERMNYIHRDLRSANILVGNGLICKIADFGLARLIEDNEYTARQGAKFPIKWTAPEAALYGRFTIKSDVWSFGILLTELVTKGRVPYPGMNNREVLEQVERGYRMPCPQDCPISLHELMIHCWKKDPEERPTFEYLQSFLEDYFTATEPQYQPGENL

For `O=C(Nc1cc(Nc2ncccc2-c2ncnc3[nH]cnc23)ccc1F)c1cc(C(F)(F)F)cc(C(F)(F)F)c1` [SJ-C1044, N-(5-(3-(9H-purin-6-yl)pyridin-2-ylamino)-2-fluorophenyl)-3,5-bis(trifluoromethyl)benzamide], the inhibition at 10 µM (p70S6K(h)) was 8%, the inhibition at 10 µM (PKCα(h)) was -14% and the inhibition at 10 µM (SGK(h)) was -34%. For the same molecule, the inhibition at 10 µM (PKCβII(h)) was 10%, the inhibition at 10 µM (PKCη(h)) was 3% and the inhibition at 10 µM (Fyn(h)) was 27%. It also gave an inhibition at 10 µM (CDK2/cyclinE(h)) of 2%, an EC50 (CRAF; [1]) of 1400 nM and an inhibition at 10 µM (CRAF; [2]) of 83%. For the same molecule, the EC50 (ARAF) was over 10000 nM, the EC50 (BRAF; [1]) was 1300 nM and the inhibition at 10 µM (BRAF; [2]) was 86%. The “VEGF-stimulated endothelial tube formation” value (HUVECs) was “strong activity”, the “VEGF-induced tube formation, compared to LY3009120” value (HUVECs; 10 μM, 10 nmol/L VEGF) was “more effectively blocked” and the inhibition at 10 µM (PRK2(h)) was -2%. It also gave an inhibition at 10 µM (EGFR(h)) of -4%, an inhibition at 10 µM (PDGFRα(h)) of -10% and an inhibition at 10 µM (Yes(h)) of 17%. It also gave an inhibition at 10 µM (CaMKIV(h)) of 2%.
